Test results from US6440989B2, “Phenyl-substituted tricyclic inhibitors of farnesyl-protein transferase” (Schering Corporation, priority 1997, dated 2002).

target: T1, partially purified rat brain farnesyl protein transferase (FPT) (Rattus norvegicus, UniProt Q02293+Q04631); test: In vitro enzyme assay: inhibition of Ras-CVLS farnesylation by farnesyl protein transferase; type: biochemical
T1 construct: partially purified rat brain farnesyl protein transferase (FPT); from tissue; host or cells: rat brain
Method: 1. In vitro enzyme assays: FPT IC50 (inhibition of farnesyl protein transferase, in vitro enzyme assay) are determined by the methods disclosed in WO/10515 or WO 95110516.

IC50 | SMILES
5.4 nM | Cc1cc(Br)c2c(c1)CCc1cc(Br)cnc1C2=C1CCN(C(=O)Cc2cc[n+]([O-])cc2)CC1 [Example 37, -(3-Bromo-5,6-dihydro-10-bromo-8-methyl-11H-benzo[5,6]cyclohepta[1,2-b]pyridin-11-ylidene)-1-(4-pyridinylacetyl)piperidine N1-Oxide]
> 16 nM | Cc1cc(Br)c2c(c1)CCc1cc(Br)cnc1C2C1CCN(C(=O)Cc2cc[n+]([O-])cc2)CC1 (single isomer, unassigned; (-)) [Example 34, (−) 4-(3-Bromo-6,11-dihydro-10-bromo-8-methyl-5H-benzo[5,6]cyclohepta[1,2-b]pyridin-11-yl)-1-(4-pyridinylacetyl)piperidine N1-Oxide]
58 nM | COc1cc(C)c2c(c1)CCc1cc(Br)cnc1C2N1CCN(C(=O)Cc2cc[n+]([O-])cc2)CC1 (racemic) [Example 26, (+,−)-1-(3-Bromo-8-methoxy-10-methyl-6,11-dihydro-5H-benzo[5,6]cyclohepta[1 ,2-b]pyridin-11-yl)-4-(4-pyridinylacetyl)piperzazine N4-oxide]
59 nM | C=Cc1cnc2c(c1)CCc1cc(C)cc(OC)c1C2C1CCN(C(=O)Cc2cc[n+]([O-])cc2)CC1 (stereo not shown) [Example 27, 4-(3-Ethenyl-6,11-dihydro-10-methoxy-8-methyl-5H-benzo[5,6]cyclohepta[1,2-b]pyridin-11-yl)-1-(4-pyridinylacetyl)piperidine N1-Oxide]
